Laboratory results from patent publication EP3644968B1, “LEVOCLOPERASTINE FENDIZOATE SUSPENSION HAVING ENHANCED DISSOLUTION AND RESUSPENDABILITY” (Ilko Ilaç Sanayi Ve Ticaret Anonim Sirketi, priority 2017, dated 2019).

Legend:
[1] = system: cough caused by tracheal mechanical stimulus; conditions: guinea pig, relative to codeine; cited from earlier work
cough = conditions: cited from earlier work
[2] = particle size distribution by laser diffraction (Malvern Mastersizer-2000, dry dispersion); type: physicochemical; conditions: volume particle size distribution of the drug substance used
Method: Particle size is determined by laser light scattering using a particle size analyzer, such as the proprietary Mastersizer™ apparatus in a dry dispersion system available from Malvern Instruments Ltd. (Malvern Mastersizer-2000, single narrow mode). Laser diffraction enables to measure particle size distributions by measuring the angular variation by scattering light intensity as a laser beam passes through a dispersed particulate sample. Large particles scatter light at small angles relative to the laser beam and small particles scatter light at large angles. The angular scattering intensity data is then analyzed to calculate the size of the particles responsible for creating the scattering pattern, using the Mie theory of light scattering. The particle size is reported as a volume equivalent sphere diameter.
A common approach to define the distribution width is to cite three values on the x-axis as D10, D50 and D90. The D50, named as median, has been defined as the diameter where 50 percent of the distribution lies below this value. Similarly, D90 has been defined as 90 percent of the distribution lies below, and 10 percent of the population lies below the D10.

| SMILES | efficacy against cough, times greater than codeine [1] [times] | duration of action of a single dose (cough; single dose) [h] | initial response after oral administration (cough; therapeutic dose range 10-20 mg three times daily for adults, oral) [min] | d(0.1) [2] | d(0.5) [2] | d(0.9) [2] |
| --- | --- | --- | --- | --- | --- | --- |
| Clc1ccc(C(OCCN2CCCCC2)c2ccccc2)cc1 (racemic) [cloperastine] | 1.9 | 3 to 4 | 20 to 30 |  |  |  |
| Clc1ccc([C@@H](OCCN2CCCCC2)c2ccccc2)cc1.O=C(O)c1ccccc1C(=O)c1ccc(O)c(-c2ccccc2)c1 [Levocloperastine fendizoate] |  |  |  | d(0.1): 3.031 µm | d(0.5): 13.126 µm | d(0.9): 39.322 µm |
